Results published in the NIST ThermoML archive (doi:10.1016/j.jct.2018.08.005).

Assay: xn = mol fraction of the nth substance listed
Settings: Liquid, Vibrating tube method

CCOC(F)(C(F)(F)C(F)(F)C(F)(F)F)C(F)(C(F)(F)F)C(F)(F)F (stereo not given) [2-trifluoromethyl-3-ethoxydodecafluorohexane] + CC(C)OC(C)C
mass density [kg/m3]
Settings | x1 = 0.25 | x1 = 0.375 | x1 = 0.5 | x1 = 0.625 | x1 = 0.75
363.15 K, 70000 kPa | 1074.1 | 1203 | 1317.5 | 1418.6 | 1507
363.15 K, 80000 kPa | 1085.2 | 1215.5 | 1330.8 | 1432.6 | 1521.5
363.15 K, 90000 kPa | 1095.5 | 1227 | 1343.1 | 1445.6 | 1534.9
363.15 K, 100000 kPa | 1105.1 | 1237.5 | 1354.5 | 1457.8 | 1547.4
363.15 K, 110000 kPa | 1114.2 | 1247.5 | 1365.3 | 1469.1 | 1559.3
363.15 K, 120000 kPa | 1122.7 | 1257.1 | 1375.4 | 1479.8 | 1570.4
363.15 K, 130000 kPa | 1130.7 | 1265.9 | 1385 | 1490 | 1580.9
363.15 K, 140000 kPa | 1138.4 | 1274.6 | 1394.2 | 1499.7 | 1591
373.15 K, 10000 kPa | 957.5 | 1074 | 1179.6 | 1272.3 | 1355.8
373.15 K, 20000 kPa | 983.8 | 1103.6 | 1210.9 | 1305.3 | 1389.8
373.15 K, 30000 kPa | 1005 | 1127.2 | 1236 | 1331.8 | 1417.3
373.15 K, 40000 kPa | 1022.8 | 1147.1 | 1257.2 | 1354.2 | 1440.5
373.15 K, 50000 kPa | 1038.4 | 1164.3 | 1275.8 | 1373.8 | 1460.8
373.15 K, 60000 kPa | 1052.3 | 1179.7 | 1292.2 | 1391.2 | 1478.9
373.15 K, 70000 kPa | 1064.8 | 1193.7 | 1307.2 | 1407 | 1495.3
373.15 K, 80000 kPa | 1076.3 | 1206.4 | 1320.8 | 1421.5 | 1510.3
373.15 K, 90000 kPa | 1086.9 | 1218.3 | 1333.5 | 1435 | 1524.3
373.15 K, 100000 kPa | 1096.9 | 1229.2 | 1345.3 | 1447.4 | 1537.2
373.15 K, 110000 kPa | 1106.1 | 1239.6 | 1356.2 | 1459.1 | 1549.4
373.15 K, 120000 kPa | 1114.8 | 1249.3 | 1366.6 | 1470.1 | 1560.8
373.15 K, 130000 kPa | 1123.1 | 1258.3 | 1376.4 | 1480.5 | 1571.6
373.15 K, 140000 kPa | 1130.8 | 1267 | 1385.7 | 1490.4 | 1581.8
383.15 K, 10000 kPa | 942.8 | 1058 | 1162.6 | 1254.2 | 1336.7
383.15 K, 20000 kPa | 971.3 | 1089.6 | 1196.3 | 1289.7 | 1373.1
383.15 K, 30000 kPa | 993.8 | 1114.7 | 1223 | 1317.8 | 1402
383.15 K, 40000 kPa | 1012.6 | 1135.6 | 1245.4 | 1341.5 | 1426.5
383.15 K, 50000 kPa | 1028.9 | 1153.6 | 1264.7 | 1361.9 | 1447.6
383.15 K, 60000 kPa | 1043.2 | 1169.5 | 1281.8 | 1379.9 | 1466.4
383.15 K, 70000 kPa | 1056.2 | 1184 | 1297.2 | 1396.3 | 1483.3
383.15 K, 80000 kPa | 1068.1 | 1197.2 | 1311.3 | 1411.4 | 1498.8
383.15 K, 90000 kPa | 1079 | 1209.3 | 1324.3 | 1425 | 1513.1
383.15 K, 100000 kPa | 1089.2 | 1220.6 | 1336.3 | 1437.8 | 1526.4
383.15 K, 110000 kPa | 1098.7 | 1231.2 | 1347.6 | 1449.8 | 1538.8
383.15 K, 120000 kPa | 1107.7 | 1241.3 | 1358.3 | 1461.2 | 1550.7
383.15 K, 130000 kPa | 1116.1 | 1250.6 | 1368.1 | 1471.8 | 1561.7
383.15 K, 140000 kPa | 1124.2 | 1259.6 | 1377.9 | 1481.9 | 1572.3
393.15 K, 10000 kPa | 927.9 | 1041.6 | 1145.1 | 1235.9 | 1317.8
393.15 K, 20000 kPa | 958.4 | 1075.7 | 1181.2 | 1273.8 | 1356.7
393.15 K, 30000 kPa | 982.1 | 1102.2 | 1209.4 | 1303.4 | 1387.3
393.15 K, 40000 kPa | 1001.8 | 1124 | 1232.7 | 1328 | 1412.8
393.15 K, 50000 kPa | 1018.7 | 1142.7 | 1252.8 | 1349.1 | 1434.8
393.15 K, 60000 kPa | 1033.7 | 1159.3 | 1270.5 | 1368 | 1454.2
393.15 K, 70000 kPa | 1047.2 | 1174.3 | 1286.5 | 1385.1 | 1471.7
393.15 K, 80000 kPa | 1059.3 | 1187.7 | 1300.8 | 1400.3 | 1487.5
393.15 K, 90000 kPa | 1070.8 | 1200.4 | 1314.4 | 1414.7 | 1502.4
393.15 K, 100000 kPa | 1081.3 | 1211.9 | 1326.8 | 1428 | 1516
393.15 K, 110000 kPa | 1091 | 1222.8 | 1338.4 | 1440.1 | 1528.7
393.15 K, 120000 kPa | 1100.3 | 1233 | 1349.4 | 1451.6 | 1540.7
393.15 K, 130000 kPa | 1108.9 | 1242.6 | 1359.7 | 1462.5 | 1552.1
393.15 K, 140000 kPa | 1117 | 1251.6 | 1369.3 | 1472.9 | 1562.7
